Results reported in patent US5770563A, “Heparin- and sulfatide binding peptides from the type I repeats of human thrombospondin and conjugates thereof” (The United States of America as represented by the …, priority 1995, dated 1998).
Like-named read-outs stand apart in the source and are kept apart here. Square brackets hold non-standard residues; d marks the D form. Peptide text beside a SMILES is read from it. Mpa = O=C(O)CCS

Tests used:
A2058 melanoma cells [1] = assay: A2058 melanoma cell adhesion to peptides adsorbed on plastic; assay type: cell-based, human
Description: Human melanoma cell line A2058 (Todaro et al., Proc. Natl. Acad. Sci USA 77, 5258-5262 (1980)) was maintained by monolayer culture at 37° with 5% carbon dioxide in RPMI 1640 medium containing 10% fetal bovine serum. For attachment assays, cells were removed using trypsin, passaged at 10^4 cells/cm^2 and harvested between days 5 and 7. Attachment and spreading on thrombospondin-coated plastic was determined as previously described (Roberts et al., J. Cell Biol. 104, 131-139 (1987)). Inhibition was determined by adding the inhibitor diluted in 0.4 ml of bicarbonate-free RPMI 1640 medium, containing 1 mg/ml of bovine serum albumin (fatty acid free, Sigma), pH 7.3, to wells of a 24-well dish containing bacteriological polystyrene was coated with the indicated peptides at 200 μg/ml. Melanoma cells were harvested by incubation with phosphate buffered saline containing 2.5 mM EDTA for 20 minutes at 37°. The cells were centrifuged and viability (routinely >99%) was assessed by trypan blue exclusion. The cells were resuspended in medium and allowed to recover in suspension for 1 h. Melanoma cells (2×10^5 ) suspended in 100 μl of medium (approx 10^3 /mm^2) were added to each well and allowed to attach for 60 minutes at 37° C. in a humidified atmosphere.

[2] = target: thrombospondin binding to heparin; assay: Inhibition of 125I-thrombospondin binding to immobilized heparin-BSA; parameters: species or system human
Description: (§1) The peptides were tested as inhibitors of laminin, thrombospondin or apolipoprotein E binding to a heparin-bovine serum albumen conjugate or to a sulfatide in a solid phase assay essentially following the procedure described in Zabrenetzky et al., Cancer Res., Vol. 50, pages 5937-5942 (1990). Sulfatide (0.2 μg/well for thrombospondin binding, 0.6 μg/well for laminin binding) was immobilized in a mixture of 50 ng of phosphatidyl choline, and 30 ng of cholesterol on polyvinyl chloride microtiter plates. Heparin-BSA (0.2 μg/well) was absorbed onto polyvinyl chloride microtiter plate wells by incubation of 50 μl of Dulbecco's PBS for 2 h at 37°. The wells were emptied and filled with 50 mM tris, pH 7.8 containing 150 mM NaCl, 1 mM CaCl2, 0.025% NaN3, and 1% BSA. After 30 minutes, the wells were emptied and 30 μl of various concentrations of potential inhibitory peptides diluted in the same buffer or buffer alone and 30 μl of ^125 I-labeled laminin, thrombospondin or apolipoprotein E (0.2 μg/ml) were added to each well. After 3 hours at 4°, the wells were washed 6 times with 0.15M NaCl, cut from the plate and the bound radioactivity counted. FIGS. 1A-B and 2A-B show the level of thrombospondin binding to sulfatide and heparin-BSA, respectively, in the presence of increasing concetrations of the peptides listed. FIGS. 3 and 4A-B show the level of laminin binding to sulfatide and heparin-BSA, respectively, in the presence of increasing concentrations of the listed peptides.
Microtiter plate wells were coated with heparin-BSA. Heparin-BSA (0.2 μg/well) was adsorbed by incubation in 50 μl of Dulbecco's PBS for 2 h at 370. The wells were emptied, filled with tris-BSA, and incubated for 30 to 60 minutes. The buffer was removed, and labelled thrombospondin was added and incubated in the wells for 3 h at 40. The wells were emptied and washed 4 times with saline. The bottoms of the wells were cut from the plate and counted to quantify thrombospondin binding. Inhibition of thrombospondin binding was determined using peptides diluted in 30 μl of 50 mM tris buffer, pH 7.8, containing 110 mM NaCl, 1 mM CaCl2, 0.025% NaN3, and 1% BSA or buffer alone and 30 μl of ^125 I-labeled TSP (0.2 μg/ml).

[3] = target: basic fibroblast growth factor (FGF-2) binding to heparin; assay: Inhibition of 125I-bFGF binding to heparin-BSA conjugate; details: retro-inverso peptides; read-out: IC50 for Inhibition of Binding
Description: Binding of ^125 I-bFGF to heparin was determined using an immobilized heparin-BSA conjugate as previously described (Guo, et al. (1992) Proc. Nat'l Acad. Sci. 89:3040-3044). ^125 I-bFGF, prepared as described by Neufeld, et al, (1985), J. Biol. Chem. 260:13860-13868, was added described above, and incubated for 2 hours at 25° C. Bound radioactivity was determined after washing and cutting the wells from the plate. FIGS. 40A, B and C show the inhibition of ^125 I-bFGF binding to heparin by a number of TSP peptide analogs.

bovine endothelial cells = assay: Inhibition of bovine endothelial cell proliferation (Table 7); assay type: cell-based; details: free peptide; read-out: IC50 Inhibitory Activity, Free Peptide
Description: Similar structure-function and epitope mapping studies were carried out with regard to inhibition of bovine endothelial cell proliferation. […] This may be due either to a lower tendency of the conjugates to stick to the microtiter wells or a greater tendency to disrupt binding of the cells to the substratum in the wells.
Endothelial cell proliferation was measured using the CELL TITER 96™ assay (Promega, Madison, Wis.). 5×10^3 cells were plated into each well of a 96-well culture plate in 0.5 or 5% FCS-containing medium together with the indicated concentrations of growth effectors. After 72 h, 15 μl of dye solution was added to each well, and the plates were incubated for an additional 4 h. Solubilization solution was added, and absorbance at 570 nm was determined after 24 h as described by the manufacturer.

[4] = target: thrombospondin binding to sulfatide; assay: Inhibition of 125I-thrombospondin binding to sulfatide; parameters: species or system human; details: Table 1, free peptide
Description: as §1

[5] = target: laminin binding to heparin; assay: Inhibition of 125I-laminin binding to heparin-BSA; parameters: species or system mouse; details: Table 2, free peptide
Description: as §1

[6] = target: laminin binding to sulfatide; assay: Inhibition of 125I-laminin binding to sulfatide; parameters: species or system mouse; details: Table 2, free peptide
Description: as §1

[7] = target: apolipoprotein E binding to heparin; assay: Inhibition of 125I-apolipoprotein E binding to heparin-BSA; details: Table 2, free peptide; read-out: IC50 Apo E Binding to Heparin
Description: as §1

A2058 melanoma cells [8] = assay: 125I-thrombospondin binding to A2058 melanoma cells; assay type: cell-based, human
Description: (§2) Melanoma cells (1×10^5 in 0.2 ml) were incubated with 0.2 μg/ml labeled laminin alone or in the presence of 200 micrograms per ml of peptides from SEQ ID NO:1, SEQ ID NO:2, or SEQ ID NO:3, type-I repeats from thrombospondin (FIG. 5A). Melanoma cells were also incubated with labelled laminin or thrombospondin alone or in the presence of 10 μg/ml of peptides from the first (184, SEQ ID NO:1), second (185, SEQ ID NO:2 and 246, SEQ ID NO:19), or third type I repeat of thrombospondin (186, SEQ ID NO:3) or 1 μg/ml heparin (FIG. 5B). The cells were centrifuged through oil to separate the free laminin from the bound laminin followed by quantifying the radioactivity in the cell pellet by a gamma counter. The results are presented in FIGS. 5A and B, as a percent of control binding determined in the absence of peptide and is the mean of triplicate determinations±the standard deviation.
(§3) Melanoma cells (3×10^5 cells in 0.2 ml) were incubated with 0.2 μg/ml of labelled I^125 -thrombospondin alone or in the presence of increasing concentrations of heparin or a peptide having the sequence according to SEQ ID NO:1 or a combination of the two inhibitors. […]
(§4) A2058 melanoma cells were harvested as described above and suspended in Dulbecco's PBS containing 1 mg/ml BSA. […] The supernatant fluid was aspirated, and the bottom of the tube was cut and counted.

A2058 melanoma cells [9] = assay: 125I-laminin binding to A2058 melanoma cells; assay type: cell-based, human; details: excess heparin
Description: as §2, §3, §4

[10] = test system: MDA MB435 breast carcinoma cells; assay: MDA MB435 human breast carcinoma cell proliferation; assay type: cell-based; details: free peptide
Description: Human breast carcinoma cells MDA MB435 (American Type Culture Collection) were grown in RPMI 1640 medium containing 10% fetal calf serum. Proliferation was determined as described in FIG. 18 and 44A, B and C.
Human breast carcinoma cells MDA MB435 (American Type Culture Collection) were grown in RPMI 1640 medium containing 10% fetal calf serum. Proliferation was determined in the presence of 0.5% fetal calf serum and bFGF as described in FIG. 19.

AIDS-KS cells = assay: AIDS-KS cell chemotaxis, modified Boyden chamber; assay type: cell-based, human; details: added in the lower well
Description: Directed migration (chemotaxis) and general migration (chemokinesis) of AIDS-KS cells in culture was measured by the modified Boyden chamber assay using fibronectin coated […] Nucleopore filters as previously described. In brief, the AIDS-KS cells, were trypsinized then resuspended in RPMI 1640 containing […] (GIBCO-BRL) and 20% activated lymphocyte conditioned medium. The trypsinized cells were allowed to recover in suspension for 2 hours, then the cells were recovered by centrifugation and resuspended in RPMI 1640 containing 0.1% BS at 5×10^5 cells/ml prior to adding 100 μl to the upper wells in the chemotaxis chamber. Migration to BSA (0.1%) and OSM was performed in the presence of the indicated concentrations of TSP, and TSP peptide-FICOLL conjugates. After 3 hours incubation at 37° C. filters were stained with Diff Quick (Merz-Dade, Dudingen, Switzerland), and the migrated cells in ten high-power fields were counted. The values are triplicate determinations and the bars indicate standard deviations, n=3.

[11] = retro-inverso peptides, free, read-out: IC50 Inhibitory Activity, Free Peptide
[12] = Table 1, free peptide, read-out: IC50 Heparin Binding, inhibition of 125I-thrombospondin binding

Q: Which “inhibition of A2058 adhesion to the peptides” value (A2058 melanoma cells [1]; disks coated with 200 μg/ml peptide 185) does the source give for “apolipoprotein E: recombinant apolipoprotein E, heparin-binding protein” here?
A: The value was “inhibited adhesion”.

Q: Which results are given for `CC(=O)N[C@H](CS)C(=O)N[C@H](CO)C(=O)N[C@H](CO)C(=O)N[C@H](C)C(=O)N1CCC[C@@H]1C(=O)N[C@H](CO)C(=O)N[C@H](C)C(=O)N[C@H](Cc1c[nH]cn1)C(=O)N[C@H](CO)C(=O)N[C@H](C)C(=O)NCC(=O)NCC(=O)N[C@H](CC(=O)O)C(=O)N[C@H](CCC(N)=O)C(=O)N[C@H](CCCCN)C(=O)N[C@H](C)C(=O)N[C@H](CCCNC(=N)N)C(=O)N[C@H](CCCCN)C(N)=O` [Peptide 513, ri-amKRAKQDGGASHASPASSCac] (Ac-[dC][dS][dS][dA][dP][dS][dA][dH][dS][dA]GG[dD][dQ][dK][dA][dR][dK]-NH2)?
A: IC50 [2, 11]: 6.2 µM; IC50 [3]: 18 µM; IC50 (bovine endothelial cells): 18 µM

Q: Which results are given for `C[C@@H](O)[C@H](NC(=O)[C@H](CO)NC(=O)[C@H](CS)NC(=O)[C@H](CO)NC(=O)[C@@H](NC(=O)[C@H](Cc1c[nH]c2ccccc12)NC(=O)[C@H](CCC(=O)O)NC(=O)[C@H](CO)NC(=O)[C@H](Cc1c[nH]c2ccccc12)NC(=O)[C@@H]1CCCN1C(=O)[C@@H](N)CO)[C@@H](C)O)C(=O)N[C@@H](CO)C(=O)O` [Peptide 184, SPWSEWTSCSTS] (H-SPWSEWTSCSTS-OH)?
A: IC50 [2, 12]: 47 µM; IC50 [4]: 14 µM; IC50 [5]: 36 µM; IC50 [6]: 42 µM; IC50 [7]: 4.2 µM; inhibition of thrombospondin binding to A2058 melanoma cells, in words (A2058 melanoma cells [8]; dose dependent): inhibited

Q: What does the source list for heparin [reference compound]?
A: inhibition of thrombospondin binding to A2058 melanoma cells by heparin (A2058 melanoma cells [8]; heparin): approximately 90%; laminin binding resistant to inhibition (A2058 melanoma cells [9]): approximately 50%

Q: Which IC50 [2, 11] does the source give for `C[C@@H](NC(=O)CCS)C(=O)N[C@H](C)C(=O)N[C@H](Cc1c[nH]c2ccccc12)C(=O)N[C@H](Cc1c[nH]cn1)C(=O)N[C@H](CO)C(=O)N[C@H](Cc1c[nH]c2ccccc12)C(=O)NCC(=O)NCC(=O)N[C@H](C)C(=O)N[C@H](CCC(N)=O)C(=O)N[C@H](CCCCN)C(=O)N[C@H](C)C(=O)N[C@H](CCCNC(=N)N)C(=O)N[C@H](CCCCN)C(N)=O` [Peptide 483, ri-amKRAKQAGGWSHWAAtp] ([Mpa][dA][dA][dW][dH][dS][dW]GG[dA][dQ][dK][dA][dR][dK]-NH2) here?
A: The IC50 was 0.13 µM.

Q: What about the IC50 [3] of the same molecule?
A: Its IC50 is greater than 20 µM.

Q: And the IC50 (bovine endothelial cells)?
A: The IC50 was 4 µM.

Q: What about the “inhibition of MDA MB435 proliferation, in words” value [10] of the same molecule?
A: The value was “active”.

Q: `CC(C)[C@H](NC(=O)[C@H](CO)NC(=O)[C@@H](N)CS)C(=O)N[C@H](C(=O)N[C@@H](CS)C(=O)NCC(=O)O)[C@@H](C)O` [Peptide 187, CSVTCG] (H-CSVTCG-OH) was tested. Which IC50 [2, 12] did it give?
A: The IC50 was 6 µM.

Q: What about the “inhibition of thrombospondin binding to heparin, in words” value ([2]; free peptide) of the same molecule?
A: The value was “active”.

Q: And the IC50 [4]?
A: The IC50 was 14 µM.

Q: What about the IC50 [5] of the same molecule?
A: Its IC50 is 3 µM.

Q: And the IC50 [6]?
A: The IC50 was 3.9 µM.

Q: And the IC50 [7]?
A: The IC50 was 84 µM.

Q: What about the “promotion of melanoma cell adhesion, in words” value (A2058 melanoma cells [1]; peptide adsorbed on plastic) of the same molecule?
A: Its value is “promoted significant cell adhesion above background”.

B1: oncostatin M: growth factor, chemoattractant for AIDS-KS cells (protein, UniProt P13725 26-221, looked up)
Oncostatin-M: AAIGSCSKEYRVLLGQLQKQTDLMQDTSRLLDPYIRIQGLDVPKLREHCRERPGAFPSEETLRGLGRRGFLQTLNATLGCVLHRLADLEQRLPKAQDLERSGLNIEDLEKLQMARPNILGLRNNIYCMAQLLDNSDTAEPTKAGRGASQPPTPTPASDAFQRKLEGCRFLHGYHRFMHSVGRVFSKWGESPNRSRR
Q: Which “stimulation of AIDS-KS cell motility” value (AIDS-KS cells) does the source give for B1 here?
A: The value was “simulated motility”.
